According to patent US20250145599A1, “CERTAIN CHEMICAL ENTITIES, COMPOSITIONS, AND METHODS” (Retune Pharma Inc., priority 2022, published 2025):

What was measured:
[1] = test system: thyroid eye disease; conditions: cited from earlier work
[2] = test system: malignancies; conditions: Phase I trials; cited from earlier work
[3] = target: T1, IGF-1R (Homo sapiens, UniProt P08069); test: IGF-1R biochemical assay (ADP-Glo); conditions: read-out: IGF1R IC50
Procedure: The inhibitory activity against IGF-1R was measured using ADP-Glo assay. The percent (%) inhibition at each concentration of compound is calculated based on and relative to the luminescence signal in the Max and Min control wells contained within each assay plate. The Max control wells contain enzyme and substrate as 0% inhibition, and the Min control wells only contain substrate without enzyme as 100% inhibition. The concentrations and % inhibition values for tested compounds are plotted and the concentration of compound required for 50% inhibition (IC50) is determined with a four-parameter logistic dose response equation.
Table 3 provides IC50 data of representative compounds against IGF-1R using ADP-Glo assay. The IC50 data are designated within the following ranges: A: ≤0.10 μM, B: >0.10 μM to ≤1 μM, C: >1 μM to ≤20 μM

[4] = test system: Ba/F3-TEL-IGF-1R cells; test: CellTiter-Glo luminescent cell viability assay; assay type: cell-based; conditions: cellular IC50, Ba/F3-TEL-IGF-1R cells
Procedure: The CellTiter-Glo luminescent cell viability assay was used to determine the inhibitory activity of the compounds against IGF-1R in Ba/F3-TEL-IGF-1R cells. […] The IC50 data are designated within the following ranges: A: ≤1 μM, B: >1 μM to ≤10 μM, C: >10 μM to ≤20 μM

[5] = test system: adrenocortical carcinoma; conditions: Phase 3 study; cited from earlier work
[6] = test system: IGF-1R-driven xenograft model; conditions: orally once daily; cited from earlier work
[7] = test system: tumor cell lines; conditions: variety of tumor cell lines; cited from earlier work
[8] = target: T1, IGF-1R; conditions: cited from earlier work
[9] = test system: metastatic pancreatic cancer; conditions: clinical trials, incl. metastatic pancreatic cancer; cited from earlier work

T1 sequence (P08069 31-1367): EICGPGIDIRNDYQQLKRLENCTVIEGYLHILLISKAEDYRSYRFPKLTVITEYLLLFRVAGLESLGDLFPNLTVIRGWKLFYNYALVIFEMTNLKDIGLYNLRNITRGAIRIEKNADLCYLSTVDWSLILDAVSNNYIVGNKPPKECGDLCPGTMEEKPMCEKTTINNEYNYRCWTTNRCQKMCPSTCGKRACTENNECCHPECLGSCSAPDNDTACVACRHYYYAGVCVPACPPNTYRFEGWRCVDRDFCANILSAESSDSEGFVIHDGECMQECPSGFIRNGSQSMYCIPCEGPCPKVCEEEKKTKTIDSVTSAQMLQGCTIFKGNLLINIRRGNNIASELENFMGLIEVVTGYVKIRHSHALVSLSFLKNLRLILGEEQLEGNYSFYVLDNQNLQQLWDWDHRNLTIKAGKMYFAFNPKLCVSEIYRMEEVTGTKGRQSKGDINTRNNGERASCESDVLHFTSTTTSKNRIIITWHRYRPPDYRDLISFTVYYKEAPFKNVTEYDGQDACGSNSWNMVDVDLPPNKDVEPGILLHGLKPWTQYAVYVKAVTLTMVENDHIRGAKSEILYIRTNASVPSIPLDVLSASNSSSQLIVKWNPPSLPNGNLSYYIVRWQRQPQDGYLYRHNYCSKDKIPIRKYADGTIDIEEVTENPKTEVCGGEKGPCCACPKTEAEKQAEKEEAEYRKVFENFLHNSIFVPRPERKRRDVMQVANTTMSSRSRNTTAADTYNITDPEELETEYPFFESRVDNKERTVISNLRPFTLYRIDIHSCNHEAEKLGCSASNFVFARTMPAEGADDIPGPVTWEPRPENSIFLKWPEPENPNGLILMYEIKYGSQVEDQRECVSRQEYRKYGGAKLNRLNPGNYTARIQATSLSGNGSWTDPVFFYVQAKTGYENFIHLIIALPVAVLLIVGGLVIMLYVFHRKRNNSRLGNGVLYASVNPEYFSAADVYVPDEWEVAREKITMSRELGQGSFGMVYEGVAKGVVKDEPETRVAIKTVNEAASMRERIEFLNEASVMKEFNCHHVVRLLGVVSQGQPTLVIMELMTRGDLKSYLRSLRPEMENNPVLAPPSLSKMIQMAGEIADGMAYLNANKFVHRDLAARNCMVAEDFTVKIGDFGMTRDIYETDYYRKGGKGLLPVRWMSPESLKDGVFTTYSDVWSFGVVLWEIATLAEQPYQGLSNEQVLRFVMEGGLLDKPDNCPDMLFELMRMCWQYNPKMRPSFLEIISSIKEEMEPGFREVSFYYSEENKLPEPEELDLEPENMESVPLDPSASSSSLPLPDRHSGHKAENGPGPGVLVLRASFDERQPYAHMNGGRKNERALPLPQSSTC

Q: For teprotumumab, which “inflammation in thyroid eye disease” value [1] is on record?
A: decrease inflammation

Q: What about the “effectiveness in treating malignancies” value [2] of the same compound?
A: little effectiveness

Q: For `COc1cc(-c2ccccc2)nc2cc(-c3nn([C@H]4C[C@@](C)(O)C4)c(N)c3C(N)=O)ccc12` [Example C032, 5-amino-1-((1s,3s)-3-hydroxy-3-methylcyclobutyl)-3-(4-methoxy-2-phenylquinolin-7-yl)-1H-pyrazole-4-carboxamide], which IC50 [3] is on record?
A: ≤ 100 nM

Q: What about the IC50 [4] of the same compound?
A: ≤ 1000 nM

Q: For `NC(=O)c1c(-c2ccc3ccc(-c4ccccc4)nc3c2)nn([C@H]2C[C@H](CN3CCOCC3)C2)c1N` [Example C013, 5-amino-1-((1r,3r)-3-(morpholinomethyl)cyclobutyl)-3-(2-phenylquinolin-7-yl)-1H-pyrazole-4-carboxamide], which IC50 [3] is on record?
A: ≤ 100 nM

Q: What about the IC50 [4] of the same compound?
A: ≤ 1000 nM

Q: Which IC50 [3] does the source give for `COc1cc(-c2ccccc2F)nc2cc(-c3nn([C@H]4C[C@@](C)(O)C4)c(N)c3C(N)=O)ccc12` [Example C046, 5-amino-3-(2-(2-fluorophenyl)-4-methoxyquinolin-7-yl)-1-((1s,3s)-3-hydroxy-3-methylcyclobutyl)-1H-pyrazole-4-carboxamide] here?
A: ≤ 100 nM

Q: What about the IC50 [4] of the same compound?
A: ≤ 1000 nM

Q: What does the source list for `CCOc1cc(-c2ccccc2)nc2cc(-c3nn([C@H]4C[C@@](C)(O)C4)c(N)c3C(N)=O)ccc12` [Example C036, 5-amino-3-(4-ethoxy-2-phenylquinolin-7-yl)-1-((1s,3s)-3-hydroxy-3-methylcyclobutyl)-1H-pyrazole-4-carboxamide]?
A: IC50 [3]: ≤ 100 nM; IC50 [4]: ≤ 1000 nM

Q: What does the source list for `C[C@]1(O)C[C@@H](c2nc(-c3ccc4ccc(-c5ccccc5)nc4c3)c3c(N)nccn32)C1` [OSI-906, Linsitinib]?
A: overall survival [5]: did not increase overall survival; in vivo anti-tumor efficacy [6]: robust in vivo anti-tumor efficacy; in vitro antiproliferative effects [7]: in vitro antiproliferative effects; inhibition of autophosphorylation of human IGF-1R [8]: potently and selectively inhibits autophosphorylation

Q: Which IC50 [3] does the source give for `CCOc1cc(-c2ccccc2)nc2c(F)c(-c3nn([C@H]4C[C@@](C)(O)C4)c(N)c3C(N)=O)ccc12` [Example C033, 5-amino-3-(4-ethoxy-8-fluoro-2-phenylquinolin-7-yl)-1-((1s,3s)-3-hydroxy-3-methylcyclobutyl)-1H-pyrazole-4-carboxamide] here?
A: ≤ 100 nM

Q: What about the IC50 [4] of the same compound?
A: ≤ 1000 nM

Q: What does the source list for `C[C@]1(O)C[C@@H](n2nc(-c3ccc4ccc(-c5ccccc5F)nc4c3F)c(C(N)=O)c2N)C1` [Example C056, 5-amino-3-(8-fluoro-2-(2-fluorophenyl)quinolin-7-yl)-1-((1s,3s)-3-hydroxy-3-methylcyclobutyl)-1H-pyrazole-4-carboxamide]?
A: IC50 [3]: ≤ 100 nM; IC50 [4]: ≤ 1000 nM

Q: For ganitumab, which survival rates [9] is on record?
A: largely ineffective at improving survival rates

Q: What does the source list for `COc1cc(-c2ccccc2F)nc2c(F)c(-c3nn([C@H]4C[C@](C)(O)C4)c(N)c3C(N)=O)ccc12` [Example C050, 5-amino-3-(8-fluoro-2-(2-fluorophenyl)-4-methoxyquinolin-7-yl)-1-((1r,3r)-3-hydroxy-3-methylcyclobutyl)-1H-pyrazole-4-carboxamide]?
A: IC50 [3]: ≤ 100 nM; IC50 [4]: ≤ 1000 nM
